For 28 molecules, IC50 results are on record in ChEMBL document CHEMBL1141866, “Synthesis and evaluation of thiazole carboxamides as vanilloid receptor 1 (TRPV1) antagonists” (Bioorg Med Chem Lett, 2005).

SMILES strings stand for the structures. pIC50: −log10 of the molar value. Bounds are passed on as bounds.

A short description of one assay: Ability to block acid-induced calcium influx in rat-human chimera TRPV1 expressing CHO cells. The class given is cell-based.
The term pIC50 denotes the negative decadic logarithm of the IC50, by convention in mol/L. As to `O=C(Nc1ccccc1)c1csc(Cc2c(Cl)cccc2Cl)n1`, the pIC50 is below 5.40.
`CN(C)c1ccc(NC(=O)c2csc(Cc3c(Cl)cccc3Cl)n2)cc1`: the negative logarithm of the IC50 (pIC50) was 5.90.
The same measure, in the same setting: then `COc1ccc(NC(=O)c2csc(Cc3c(Cl)cccc3Cl)n2)cc1`, with below 5.40; and `Cc1cccc(C)c1Nc1nc(C(=O)Nc2ccc(C(F)(F)F)cc2)cs1`, with 7.09.
Take `O=C(Nc1ccc(C(F)(F)F)cc1)c1csc(Nc2c(Cl)cncc2Cl)n1`: the pIC50 is 6.06.
Still for that read-out and setting: in the case of `O=C(Nc1ccc(C(F)(F)F)cc1)c1csc(Nc2c(Cl)cccc2C(F)(F)F)n1` it was below 5.40; in that of `Cc1nc(Cc2c(Cl)cccc2Cl)sc1C(=O)Nc1ccc(C(F)(F)F)cc1`, below 5.40; in that of `O=C(Nc1ccc(C(F)(F)F)nc1)c1csc(Cc2c(Cl)cccc2Cl)n1`, 6.89.
Same read-out and setting: then `O=C(Nc1cccc(Br)c1)c1csc(Cc2c(Cl)cccc2Cl)n1`, with below 5.40; and `O=C(Nc1ccccc1Br)c1csc(Cc2c(Cl)cccc2Cl)n1`, with below 5.40; and `O=C(Nc1ccc(C(F)(F)F)cc1)c1cnc(Cc2c(Cl)cccc2Cl)s1`, with 5.75.
Consider `O=C(Nc1ccc(Br)cn1)c1csc(Cc2c(Cl)cccc2Cl)n1`, for which the pIC50 was below 5.40.
`CC(C)c1ccc(NC(=O)c2csc(Cc3c(Cl)cccc3Cl)n2)cc1`: the negative-log IC50 (pIC50) is 6.28.
Regarding `COc1ccc(NC(=O)c2csc(Cc3c(Cl)cccc3Cl)n2)cn1`, the pIC50 is below 5.40.
The same measure, in the same setting: in the case of `O=C(Nc1ccc(C(F)(F)F)cc1)c1c[nH]c(Cc2c(Cl)cccc2Cl)n1` it was 6.64; in that of `O=C(Nc1ccc(C(F)(F)F)cc1)c1csc(Nc2ccccc2Cl)n1`, 5.85; in that of `CCc1ccc(NC(=O)c2csc(Cc3c(Cl)cccc3Cl)n2)cc1`, 5.84.
The same measure, in the same setting: in the case of `O=C(Nc1ccc(C(F)(F)C(F)(F)F)cc1)c1csc(Cc2c(Cl)cccc2Cl)n1` it was 6.46; in that of `O=C(Nc1ccc(C(F)(F)F)cc1)c1coc(Cc2c(Cl)cccc2Cl)n1`, 6.70.
On to `O=C(Nc1ccc(C(F)(F)F)cc1)c1csc(CCc2c(Cl)cccc2Cl)n1`, for which the negative-log IC50 (pIC50) is below 5.40.
The same measure, in the same setting: then `O=C(Nc1ccc(C(F)(F)F)cc1)c1csc(Oc2c(Cl)cccc2Cl)n1`, with 5.89.
Still for that read-out and setting: in the case of `Cn1cc(C(=O)Nc2ccc(C(F)(F)F)cc2)nc1Cc1c(Cl)cccc1Cl` it was 5.99.
Take `O=C(Nc1ccc(Br)cc1)c1csc(Cc2c(Cl)cccc2Cl)n1`: the negative-log IC50 (pIC50) was 6.34.
Consider `O=C(Nc1ccc(C(F)(F)F)cc1)c1csc(Nc2c(Cl)cccc2Cl)n1`, for which the pIC50 was 7.32.
For the molecule `N#Cc1ccc(NC(=O)c2csc(Cc3c(Cl)cccc3Cl)n2)cc1`, the negative logarithm of the IC50 (pIC50) was 6.14.
Take `O=C(Nc1ccc(C(F)(F)F)cc1)c1csc(Cc2c(Cl)cccc2Cl)n1`: the pIC50 is 7.06.
For the molecule `CC(C)(C)c1ccc(NC(=O)c2csc(Cc3c(Cl)cccc3Cl)n2)cc1`, the negative logarithm of the IC50 (pIC50) was 6.52.
As to `O=C(Nc1ccc(C(F)(F)F)cc1)c1csc(-c2c(Cl)cccc2Cl)n1`, the pIC50 was below 5.40.

A short description of the next assay: Ability to block capsaicin-induced calcium influx in rat-human chimera TRPV1 expressing CHO cells. The class given is cell-based.
For the molecule `O=C(Nc1ccccc1)c1csc(Cc2c(Cl)cccc2Cl)n1`, the pIC50 was below 5.40.
As to `CN(C)c1ccc(NC(=O)c2csc(Cc3c(Cl)cccc3Cl)n2)cc1`, the pIC50 was below 5.40.
`COc1ccc(NC(=O)c2csc(Cc3c(Cl)cccc3Cl)n2)cc1`: the pIC50 is below 5.40.
On the same count and under the same terms, in the case of `Cc1cccc(C)c1Nc1nc(C(=O)Nc2ccc(C(F)(F)F)cc2)cs1` it was 7.05; in that of `O=C(Nc1ccc(C(F)(F)F)cc1)c1csc(Nc2c(Cl)cncc2Cl)n1`, 6.44; in that of `O=C(Nc1ccc(C(F)(F)F)cc1)c1csc(Nc2c(Cl)cccc2C(F)(F)F)n1`, below 5.40.
`O=C(Nc1ccc(C(F)(F)F)nc1)c1csc(Cc2c(Cl)cccc2Cl)n1`: the pIC50 was 6.96.
On the same count and under the same terms, then `O=C(Nc1cccc(Br)c1)c1csc(Cc2c(Cl)cccc2Cl)n1`, with below 5.40; and `O=C(Nc1ccccc1Br)c1csc(Cc2c(Cl)cccc2Cl)n1`, with below 5.40.
On to `O=C(Nc1ccc(C(F)(F)F)cc1)c1cnc(Cc2c(Cl)cccc2Cl)s1`, for which the pIC50 is 6.10.
Same read-out and setting: in the case of `O=C(Nc1ccc(Br)cn1)c1csc(Cc2c(Cl)cccc2Cl)n1` it was below 5.40; in that of `CC(C)c1ccc(NC(=O)c2csc(Cc3c(Cl)cccc3Cl)n2)cc1`, 6.43; in that of `COc1ccc(NC(=O)c2csc(Cc3c(Cl)cccc3Cl)n2)cn1`, below 5.40.
Regarding `O=C(Nc1ccc(C(F)(F)F)cc1)c1c[nH]c(Cc2c(Cl)cccc2Cl)n1`, the negative logarithm of the IC50 (pIC50) is 6.64.
For `O=C(Nc1ccc(C(F)(F)F)cc1)c1csc(Nc2ccccc2Cl)n1`, the pIC50 is 5.76.
With `CCc1ccc(NC(=O)c2csc(Cc3c(Cl)cccc3Cl)n2)cc1`, the pIC50 was 6.09.
For `O=C(Nc1ccc(C(F)(F)C(F)(F)F)cc1)c1csc(Cc2c(Cl)cccc2Cl)n1`, the pIC50 is 6.54.
`O=C(Nc1ccc(C(F)(F)F)cc1)c1coc(Cc2c(Cl)cccc2Cl)n1`: the pIC50 was 7.21.
With `O=C(Nc1ccc(C(F)(F)F)cc1)c1csc(CCc2c(Cl)cccc2Cl)n1`, the pIC50 is below 5.40.
The same measure, in the same setting: in the case of `O=C(Nc1ccc(C(F)(F)F)cc1)c1csc(Oc2c(Cl)cccc2Cl)n1` it was 6.06.
The same measure, in the same setting: in the case of `Cn1cc(C(=O)Nc2ccc(C(F)(F)F)cc2)nc1Cc1c(Cl)cccc1Cl` it was 6.00; in that of `O=C(Nc1ccc(Br)cc1)c1csc(Cc2c(Cl)cccc2Cl)n1`, 6.40.
The same measure, in the same setting: then `O=C(Nc1ccc(C(F)(F)F)cc1)c1csc(Nc2c(Cl)cccc2Cl)n1`, with 7.29.
Turning to `N#Cc1ccc(NC(=O)c2csc(Cc3c(Cl)cccc3Cl)n2)cc1`, the pIC50 is 6.35.
As to `CC(C)(C)c1ccc(NC(=O)c2csc(Cc3c(Cl)cccc3Cl)n2)cc1`, the pIC50 was 6.24.
On the same count and under the same terms, then `O=C(Nc1ccc(C(F)(F)F)cc1)c1csc(-c2c(Cl)cccc2Cl)n1`, with below 5.40.
